Test results published in the supplement of paper PMC10949913.

Legend:
Details in all cases: 48 h
[1] = tested on: CU-ACC1; test: AC50 viability; higher = less potent
How it was run: (§1)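 Library compounds were dispensed at 11 concentrations (23 nL each) onto three adrenocortical carcinoma cell lines in 1,536-well plates. Luminescence was recorded after 48 h using CellTiter-Glo, and signals were normalised per plate to vehicle and empty-well controls. Fitted concentration-response curves of inhibitory or non-responding classes only supplied the AC50 and area under the curve.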

[2] = tested on: CU-ACC2; test: area under concentration-response curve (viability) (AUC (a.u.)); higher = less active
How it was run: as §1

[3] = tested on: NCI-H295R; test: as above
How it was run: as §1

[4] = tested on: CU-ACC1; test: as above
How it was run: as §1

SMILES | AC50 viability [1] [µM] | area under concentration-response curve [2] | area under concentration-response curve [3] | area under concentration-response curve [4]
CN(CC#C)C/C1=C/C2=CC=CC=C2OC3=CC=CC=C13 | 33.2 | 524 | 546 | 419
CN(C)Cc1ccc(-c2nc3cccc4c3n2CCNC4=O)cc1 | 33.2 | 216 |  | 294
C[C@](O)(COc1ccc(C#N)cc1)C(=O)Nc1ccc(C#N)c(C(F)(F)F)c1 | 0.00118 |  | 248 | 322
COC1=CC=CC2=C1C(=C(/C(=O)N(C)C3=CC=C(C=C3)C(F)(F)F)C(=O)N2C)/O | 0.0525 | 187 |  | 279
NC(=O)c1noc([C@H](CCCC2CCCCC2)CC(=O)NO)n1 | 41.7 | 531 |  | 446
CCC1CCCCN1C(=O)n1ncc(C(O)(c2ccccc2)c2ccccc2)n1 (stereo not given) | 18.6 | 571 |  | 435
Cc1cc2c(F)c(Oc3ncnn4cc(OC[C@@H](C)O)c(C)c34)ccc2[nH]1 | 0.00263 |  | 329 | 317
c1nc2c(NC3CCCCC3)nc(Nc3ccc(N4CCOCC4)cc3)nc2[nH]1 | 0.00118 |  | 274 | 283
O=C(O)c1ccc(O)c2ncc(N3CCOCC3)cc12 | 23.5 | 525 |  | 442
COC1CCC(C(=O)c2ccc3nc4c(cc3c2)CCCO4)CC1 (stereo not given) | 16.6 | 501 |  | 460
O=C(O)CC[C@H]1CC[C@@](c2cc(F)ccc2F)([S+](=O)([O-])c2ccc(Cl)cc2)CC1 | 0.00105 |  | 255 | 359
O=C(NO)C1(C[S+](=O)([O-])c2ccc(Oc3ccc(Cl)cc3)cc2)CCOCC1 | 16.6 | 553 |  | 450
O=C(NOCC(O)CO)c1cc(Br)c(F)c(F)c1Nc1ccc(I)cc1F (stereo not given) | 1.18 | 407 |  | 416
CCOC(=O)c1c(CSc2ccccc2)n(C)c2cc(Br)c(O)c(CN(C)C)c12 | 37.2 | 600 |  | 476
Cc1ccc(-n2nc(C(C)(C)C)cc2NC(=O)Nc2ccc(OCCN3CCOCC3)c3ccccc23)cc1 | 29.5 | 499 |  | 374
O=C1CSC(=O)N1C(CCc1ccncc1)COc1ccc(-c2cccc([N+](=O)[O-])c2)cc1 (stereo not given) | 2.63 |  | 396 | 309
CC(=O)O[C@@]1(CC[C@H]2[C@@H]3\C=C(Cl)/C4=C/C(=O)[C@@H]5C[C@@H]5[C@]4(C)[C@H]3CC[C@]12C)C(C)=O | 2.35 |  | 304 | 325
N[S+](=O)([O-])c1ccc([S+](=O)([O-])Nc2cccc3c(Cl)c[nH]c23)cc1 | 8.33 | 527 |  | 404
CN(C)c1ccccc1CN1CCCN(Cc2ccccc2N(C)C)C1c1ccncc1 | 8.33 |  | 444 | 448
O=C(O)[C@H](O)[C@@H](O)[C@H](O[C@@H]1O[C@H](CO)[C@H](O)[C@H](O)[C@H]1O)[C@H](O)CO | 0.00118 |  | 307 | 342
Clc1ccc(C(Cn2ccnc2)OCc2ccsc2Cl)c(Cl)c1 (stereo not given) | 16.6 | 584 |  | 476
O=C(Nc1cccc(Br)c1)c1cccc([S+](=O)([O-])N2CCCCCC2)c1 | 29.5 | 608 |  | 486
CO[C@H]1C[C@@H]2CC[C@@H](C)[C@@](O)(O2)C(=O)C(=O)N2CCCC[C@H]2C(=O)O[C@H]([C@H](C)C[C@@H]2CC[C@@H](OCCO)[C@H](OC)C2)CC(=O)[C@H](C)/C=C(/C)[C@@H](O)[C@@H](OC)C(=O)[C@H](C)C[C@H](C)\C=C/C=C\C=C/1C | 18.6 | 439 |  | 421
Cc1nc2cc(C(=O)N3CCC4(CC3)CC(=O)c3c(cnn3C(C)C)C4)ccc2[nH]1 | 26.3 |  | 568 | 467

SMILES | AC50 viability [1] [µM] | area under concentration-response curve [2] | area under concentration-response curve [3] | area under concentration-response curve [4]
CN1CC[C@H]([C@@H]1CO)C2=C3OC(=C/C(=O)C3=C(O)C=C2O)\C4=C(Cl)C=C(C=C4)C(F)(F)F | 14.8 |  | 538 | 477
N#Cc1ccc(COC[C@H]2O[C@@H](n3c(NCc4ccc(Cl)c(Cl)c4)nc4c(N)ncnc43)[C@H](O)[C@@H]2O)cc1 | 20.9 |  | 494 | 464
[O-][n+]1cccc(-c2nc3c(Cl)cccc3cc2[C@@H](Nc2ncnc3cccnc23)C(F)(F)F)c1 | 26.3 | 368 |  | 332
CN1CCc2c(n(Cc3ccc(C(=O)NO)cc3)c3ccccc23)C1 | 29.5 | 482 |  | 426
CCc1ccc(/C=C2/SC(=S)NC2=O)cc1 | 2.63 |  | 394 | 396
CC(=O)N(O)CCCCCNC(=O)CCC(=O)N(O)CCCCCNC(=O)CCC(=O)N(O)CCCCCN | 11.8 |  | 432 | 379
CN(C)C(=O)c1ccc([S+](=O)([O-])c2ccc(NC(=O)[C@@](C)(O)C(F)(F)F)c(Cl)c2)cc1 | 5.25 | 640 |  | 346
C[C@@H]1CC2C3C[C@H](F)C\4=C\C(=O)\C=C/[C@]4(C)[C@@]3(F)[C@@H](O)C[C@]2(C)[C@@]1(OC(=O)C5=CC=CO5)C(=O)SCF (stereo not given in full) | 41.7 | 592 |  | 468
Clc1ccccc1C(c1ccccc1)(c1ccccc1)n1ccnc1 | 18.6 | 518 |  | 509
COc1ccccc1N1CCN(CCN(C(=O)C2CCCCC2)c2ccccn2)CC1 | 20.9 |  | 378 | 351
CCn1c(-c2nonc2N)nc2cncc(CNC3CCNCC3)c21 | 14.8 |  | 526 | 477
OC1=CC=C(C=C1)C/2=C/C3=C(OC2)C=C(O)C=C3 | 18.6 |  | 471 | 436
O=C(Nc1ccc(OC(F)(F)Cl)cc1)c1cnc(N2CC[C@@H](O)C2)c(-c2ccn[nH]2)c1 | 33.2 | 574 |  | 442
O=C(CCN1CCN(C(=O)OCc2cc(Cl)cc(Cl)c2)CC1)c1ccc2[nH]c(=O)oc2c1 | 23.5 | 495 |  | 468
COC[C@H]1OC(=O)C2=COC3=C2[C@@]1(C)\C4=C(C5CCC(=O)[C@@]5(C)C[C@H]4OC(C)=O)/C3=O (stereo not given in full) | 16.6 | 549 |  | 446
CCOC(=O)[C@@]1(CCCCCCOc2ccc(Cl)cc2)CO1 | 23.5 | 624 |  | 382
O=C1N\N=C(\CC2=CC=CC(=C2)C(=O)N3CCN(CC3)C4=NC=CC=C4C#N)C5=CC=CC=C15 | 18.6 |  | 548 | 450
CC1Oc2cc(cnc2N)-c2c(nn(C)c2C#N)CN(C)C(=O)c2ccc(F)cc21 (stereo not given) | 6.61 | 485 |  | 463
FC(F)(F)c1ccc(Nc2nc3cc(Oc4ccnc(-c5ncc(C(F)(F)F)[nH]5)c4)ccc3[nH]2)cc1 | 4.68 | 603 |  | 479
C[C@H](NC(=O)[C@@H](O)c1cc(F)cc(F)c1)C(=O)N[C@@H]1C(=O)N(C)c2ccccc2-c2ccccc21 | 26.3 |  | 424 | 381
CN1CCC(CC1)=C2C3=C(C=CC=C3)\C=C/C4=C2C=CC=C4 | 8.33 | 480 |  | 373
CC(C)c1c(C(=O)Nc2ccccc2)c(-c2ccccc2)c(-c2ccc(F)cc2)n1CC[C@@H](O)C[C@@H](O)CC(=O)O | 6.45 |  | 635 | 544
Clc1ccc(Cn2c(CN3CCCC3)nc3ccccc32)cc1 | 29.5 | 576 |  | 447
OC1=CC2=C(C=C1)C(=O)\C(=C(O2)\C3=CC(=C(O)C=C3)O)O | 14.8 | 548 |  | 451
